Data from the supplement of paper PMC13207355.

Assays:
Conditions in all cases: exposure time: 72 h
E28 [1] = patient-derived glioblastoma stem cells of classical subtype; assay: phenotypic distance (Euclidean, principal components) from DMSO controls (arbitrary units); higher = stronger morphological change
FT3469 [2] = normal neural stem cell line; assay: as above
E21 [3] = patient-derived glioblastoma stem cells of mesenchymal subtype; assay: as above
E34 [4] = patient-derived glioblastoma stem cells of proneural subtype; assay: as above
E13 [5] = patient-derived glioblastoma stem cells of classical subtype; assay: as above
E57 [6] = patient-derived glioblastoma stem cells of mesenchymal subtype; assay: as above
E31 [7] = patient-derived glioblastoma stem cells of proneural subtype; assay: as above
E28 [8] = assay: surviving fraction (nuclei count normalised to DMSO); higher = more cells surviving (less toxic)
FT3469 [9] = assay: as above
E21 [10] = assay: as above
E34 [11] = assay: as above
E13 [12] = assay: as above
E57 [13] = assay: as above
E31 [14] = assay: as above
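For phenotypic distance (Euclidean, principal components) from DMSO controls in this document: cell Painting imaging in 384-well plates, CellProfiler features reduced to at least 20 principal components, Euclidean distance versus same-plate DMSO vehicle wells (0.1% v/v), median over six images per well.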
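For surviving fraction (nuclei count normalised to DMSO) in this document: nuclei counted by high-content imaging of Hoechst-stained cells in laminin-coated 384-well plates, relative to 0.1% DMSO vehicle wells, with staurosporine as cell-death control.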

OCCN1C[C@H](O)[C@@H](O)[C@H](O)[C@H]1CO [Miglitol]
Conditions	phenotypic distance	surviving fraction
E13 [5], 4.11523 nM	0.578	–
E13 [5], 12.34567901 nM	0.499	–
E13 [5], 37.037 nM	0.296	–
E13 [5], 111.1111111 nM	0.445	–
E13 [5], 333.333 nM	0.7	–
E13 [5], 1000 nM	0.441	–
E13 [5], 3000 nM	0.584	–
E13 [12], 4.11523 nM	–	0.886
E13 [12], 12.34567901 nM	–	0.888
E13 [12], 37.037 nM	–	0.938
E13 [12], 111.1111111 nM	–	0.955
E13 [12], 333.333 nM	–	0.951
E13 [12], 1000 nM	–	0.889
E13 [12], 3000 nM	–	0.98
E21 [3], 4.11523 nM	0.913	–
E21 [3], 12.34567901 nM	0.734	–
E21 [3], 37.037 nM	0.73	–
E21 [3], 111.1111111 nM	0.986	–
E21 [3], 333.333 nM	0.413	–
E21 [3], 1000 nM	0.51	–
E21 [3], 3000 nM	0.737	–
E21 [10], 4.11523 nM	–	0.916
E21 [10], 12.34567901 nM	–	0.86
E21 [10], 37.037 nM	–	0.996
E21 [10], 111.1111111 nM	–	0.946
E21 [10], 333.333 nM	–	0.949
E21 [10], 1000 nM	–	0.914
E21 [10], 3000 nM	–	0.993
E28 [1], 4.11523 nM	0.488	–
E28 [1], 12.34567901 nM	0.943	–
E28 [1], 37.037 nM	1.54	–
E28 [1], 111.1111111 nM	0.838	–
E28 [1], 333.333 nM	0.651	–
E28 [1], 1000 nM	0.777	–
E28 [1], 3000 nM	0.637	–
E28 [8], 4.11523 nM	–	0.997
E28 [8], 12.34567901 nM	–	0.913
E28 [8], 37.037 nM	–	1.12
E28 [8], 111.1111111 nM	–	0.877
E28 [8], 333.333 nM	–	1.06
E28 [8], 1000 nM	–	1.14
E28 [8], 3000 nM	–	1.03
E31 [7], 4.11523 nM	0.64	–
E31 [7], 12.34567901 nM	0.762	–
E31 [7], 37.037 nM	0.853	–
E31 [7], 111.1111111 nM	0.501	–
E31 [7], 333.333 nM	0.613	–
E31 [7], 1000 nM	0.778	–
E31 [7], 3000 nM	0.647	–
E31 [14], 4.11523 nM	–	0.768
E31 [14], 12.34567901 nM	–	1.15
E31 [14], 37.037 nM	–	0.954
E31 [14], 111.1111111 nM	–	0.999
E31 [14], 333.333 nM	–	1.01
E31 [14], 1000 nM	–	1.17
E31 [14], 3000 nM	–	0.956
E34 [4], 4.11523 nM	0.65	–
E34 [4], 12.34567901 nM	0.713	–
E34 [4], 37.037 nM	0.625	–
E34 [4], 111.1111111 nM	0.702	–
E34 [4], 333.333 nM	0.456	–
E34 [4], 1000 nM	0.679	–
E34 [4], 3000 nM	0.758	–
E34 [11], 4.11523 nM	–	0.825
E34 [11], 12.34567901 nM	–	1.07
E34 [11], 37.037 nM	–	0.964
E34 [11], 111.1111111 nM	–	1.17
E34 [11], 333.333 nM	–	1.04
E34 [11], 1000 nM	–	0.915
E34 [11], 3000 nM	–	1.14
E57 [6], 4.11523 nM	0.469	–
E57 [6], 12.34567901 nM	0.849	–
E57 [6], 37.037 nM	0.936	–
E57 [6], 111.1111111 nM	0.643	–
E57 [6], 333.333 nM	0.643	–
E57 [6], 1000 nM	0.624	–
E57 [6], 3000 nM	0.981	–
E57 [13], 4.11523 nM	–	1.03
E57 [13], 12.34567901 nM	–	1.03
E57 [13], 37.037 nM	–	1.06
E57 [13], 111.1111111 nM	–	0.966
E57 [13], 333.333 nM	–	0.955
E57 [13], 1000 nM	–	0.997
E57 [13], 3000 nM	–	1.1
FT3469 [2], 4.11523 nM	3.01	–
FT3469 [2], 12.34567901 nM	0.609	–
FT3469 [2], 37.037 nM	0.908	–
FT3469 [2], 111.1111111 nM	0.767	–
FT3469 [2], 333.333 nM	0.996	–
FT3469 [2], 1000 nM	0.816	–
FT3469 [2], 3000 nM	0.734	–
FT3469 [9], 4.11523 nM	–	0.878
FT3469 [9], 12.34567901 nM	–	0.954
FT3469 [9], 37.037 nM	–	0.984
FT3469 [9], 111.1111111 nM	–	0.963
FT3469 [9], 333.333 nM	–	1.06
FT3469 [9], 1000 nM	–	1.07
FT3469 [9], 3000 nM	–	1.14

COc1cc2c(cc1O)CC[C@@H]1[C@@H]2CC[C@]2(C)[C@@H](O)CC[C@@H]12 [2-methoxyestradiol]
Conditions	phenotypic distance	surviving fraction
E13 [5], 4.1 nM	0.645	–
E13 [5], 12.3 nM	0.821	–
E13 [5], 37 nM	1.01	–
E13 [5], 111.1 nM	1.47	–
E13 [5], 333.3 nM	0.958	–
E13 [5], 1000 nM	1.4	–
E13 [5], 3000 nM	5.03	–
E13 [12], 4.1 nM	–	0.992
E13 [12], 12.3 nM	–	0.961
E13 [12], 37 nM	–	0.838
E13 [12], 111.1 nM	–	1.04
E13 [12], 333.3 nM	–	0.816
E13 [12], 1000 nM	–	0.777
E13 [12], 3000 nM	–	0.174
E21 [3], 4.1 nM	1	–
E21 [3], 12.3 nM	1.01	–
E21 [3], 37 nM	0.858	–
E21 [3], 111.1 nM	1.42	–
E21 [3], 333.3 nM	1.01	–
E21 [3], 1000 nM	1.82	–
E21 [3], 3000 nM	6.05	–
E21 [10], 4.1 nM	–	0.888
E21 [10], 12.3 nM	–	0.932
E21 [10], 37 nM	–	0.919
E21 [10], 111.1 nM	–	0.885
E21 [10], 333.3 nM	–	0.928
E21 [10], 1000 nM	–	0.803
E21 [10], 3000 nM	–	0.257
E28 [1], 4.1 nM	0.862	–
E28 [1], 12.3 nM	1.15	–
E28 [1], 37 nM	0.941	–
E28 [1], 111.1 nM	1.27	–
E28 [1], 333.3 nM	0.698	–
E28 [1], 1000 nM	1.54	–
E28 [1], 3000 nM	3.97	–
E28 [8], 4.1 nM	–	1.14
E28 [8], 12.3 nM	–	0.843
E28 [8], 37 nM	–	0.86
E28 [8], 111.1 nM	–	0.687
E28 [8], 333.3 nM	–	0.862
E28 [8], 1000 nM	–	0.768
E28 [8], 3000 nM	–	0.41
E31 [7], 4.1 nM	0.701	–
E31 [7], 12.3 nM	0.672	–
E31 [7], 37 nM	0.712	–
E31 [7], 111.1 nM	0.758	–
E31 [7], 333.3 nM	0.88	–
E31 [7], 1000 nM	1.61	–
E31 [7], 3000 nM	5.31	–
E31 [14], 4.1 nM	–	1.08
E31 [14], 12.3 nM	–	0.913
E31 [14], 37 nM	–	0.985
E31 [14], 111.1 nM	–	0.862
E31 [14], 333.3 nM	–	0.731
E31 [14], 1000 nM	–	0.63
E31 [14], 3000 nM	–	0.194
E34 [4], 4.1 nM	0.764	–
E34 [4], 12.3 nM	2.41	–
E34 [4], 37 nM	0.956	–
E34 [4], 111.1 nM	0.641	–
E34 [4], 333.3 nM	0.508	–
E34 [4], 1000 nM	1.21	–
E34 [4], 3000 nM	4.96	–
E34 [11], 4.1 nM	–	0.925
E34 [11], 12.3 nM	–	0.876
E34 [11], 37 nM	–	1.11
E34 [11], 111.1 nM	–	1.07
E34 [11], 333.3 nM	–	1.02
E34 [11], 1000 nM	–	0.876
E34 [11], 3000 nM	–	0.388
E57 [6], 4.1 nM	0.835	–
E57 [6], 12.3 nM	1.06	–
E57 [6], 37 nM	0.97	–
E57 [6], 111.1 nM	0.943	–
E57 [6], 333.3 nM	0.975	–
E57 [6], 1000 nM	2.06	–
E57 [6], 3000 nM	7.41	–
E57 [13], 4.1 nM	–	1.04
E57 [13], 12.3 nM	–	1.02
E57 [13], 37 nM	–	1.09
E57 [13], 111.1 nM	–	1.06
E57 [13], 333.3 nM	–	1.03
E57 [13], 1000 nM	–	0.891
E57 [13], 3000 nM	–	0.19
FT3469 [2], 4.1 nM	1.02	–
FT3469 [2], 12.3 nM	0.62	–
FT3469 [2], 37 nM	0.868	–
FT3469 [2], 111.1 nM	0.854	–
FT3469 [2], 333.3 nM	0.793	–
FT3469 [2], 1000 nM	0.919	–
FT3469 [2], 3000 nM	3.47	–
FT3469 [9], 4.1 nM	–	0.794
FT3469 [9], 12.3 nM	–	0.981
FT3469 [9], 37 nM	–	1
FT3469 [9], 111.1 nM	–	0.858
FT3469 [9], 333.3 nM	–	0.846
FT3469 [9], 1000 nM	–	0.855
FT3469 [9], 3000 nM	–	0.527
